From PubChem BioAssay AID492959 (The Scripps Research Institute Molecular Screening Center, 2010)
The source made the active and inactive calls.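 Rule for the calls: active = IC50 of 10 µM or lower; inactive = IC50 above 10 µM.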

Test system: E. coli AddAB+ with T4 gene 2 phage, OD growth
Experiment: AddAB complex inhibitors, phage-infection growth assay, dose response, absorbance, E. coli, T4 phage (AID 492959);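 note: growth read as OD600 after 18 h at 37 °C; AddAB inhibitors let the phage kill the cells so OD falls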
[1] = AddAB enzyme is from H. pylori, T4 phage with nonsense-mutated gene 2

Row | SMILES | IC50 [1] | IC50
1 | Cc1cccc(C)c1OCc1cc(C(=O)N(C)Cc2nc3ccccc3[nH]2)no1 | > 119 µM (inactive) | –
2 | O=C(/C=C1\NC2(CCCC2)Cc2ccccc21)C(=O)N/N=C/c1ccccc1O | > 119 µM (inactive) | –
3 | CCCCC(=O)NC(c1ccccc1Cl)c1ccc2cccnc2c1O (centres undefined) | > 119 µM (inactive) | –
4 | Cc1cccnc1NC(=O)c1ccc([N+](=O)[O-])o1 | 10.1 µM (inactive) | –
5 | Cc1onc(-c2ccccc2)c1C(=O)NC(=S)NNC(=O)c1ccc(O)cc1O | > 39.5 µM (inactive) | –
6 | O=Nc1c2nc3ccccc3n(O)c-2c2ccccc12 | > 119 µM (inactive) | –
7 | CCC[C@@H](CN1CCC[C@H]1CN1C(N)=NC[C@@H]1Cc1ccccc1)N1C[C@@H]([C@H](C)CC)N(CCCC2CCCC2)C1=N | 16.2 µM (inactive) | –
8 | O=C(N/N=C/c1c(O)ccc2ccccc12)c1ccc(Br)o1 | > 119 µM (inactive) | –
9 | CCCCCOc1ccc(CSC(=N)N)cc1[N+](=O)[O-] | > 39.5 µM (inactive) | –
10 | O=[N+]([O-])c1ccc(N/N=C/c2ccc[nH]2)cc1 | > 119 µM (inactive) | –
11 | CC(=O)NC(c1ccc2ccccc2c1)c1ccc2cccnc2c1O (centres undefined) | > 118 µM (inactive) | –
12 | CC(C)C(=O)NC(c1ccc(Cl)cc1Cl)c1ccc2cccnc2c1O (centres undefined) | > 119 µM (inactive) | –
13 | CCSc1nsc(NC(=O)Nc2cccc(F)c2)n1 | > 119 µM (inactive) | –
14 | CCCC(=O)NC(c1ccccc1)c1ccc2cccnc2c1O (centres undefined) | > 119 µM (inactive) | –
15 | Nc1nonc1C(=O)N/N=C/c1ccc([N+](=O)[O-])o1 | – | 10.8 µM (inactive)
16 | CCCCC(=O)NC(c1ccc(N(CC)CC)cc1)c1ccc2cccnc2c1O (centres undefined) | > 119 µM (inactive) | –
17 | Cc1cc2c(c(=O)o1)C(c1ccc([N+](=O)[O-])o1)C(C#N)=C(N)O2 (centres undefined) | 29.6 µM (inactive) | –
18 | Cc1onc(-c2ccccc2)c1C(=O)NC(=S)NNC(=O)c1ccccc1O | > 119 µM (inactive) | –
19 | CCNc1c([N+](=O)[O-])c(=O)oc2ccccc12 | 51.6 µM (inactive) | –
20 | COc1cccc(/C=N/Nc2ncc(C(F)(F)F)cc2Cl)c1O | > 119 µM (inactive) | –
21 | Cc1c(C(=O)NNC(=O)c2ccccc2O)oc2ccc(Br)cc12 | > 119 µM (inactive) | –
22 | Cc1ccc(C(C)C)c(OCc2ccc(C(=O)N/N=C/c3ccc(O)cc3O)cc2)c1 | > 119 µM (inactive) | –
23 | Oc1ccc(N=Nc2c(O)ccc3ccccc23)cc1 | > 118 µM (inactive) | –
24 | C=CCc1cccc(/C=N/NC(=O)CNc2ccccc2OC)c1O | > 119 µM (inactive) | –
25 | CCCC(=O)NC(c1ccc(OC)cc1)c1ccc2cccnc2c1O (centres undefined) | > 119 µM (inactive) | –

Row | SMILES | IC50 [1] | IC50
26 | Cc1ccc(NC(=O)Cn2cnc3ccccc32)cc1C | > 119 µM (inactive) | –
27 | O=c1nc(N/N=C/c2ccccn2)cn[nH]1 | 36 µM (inactive) | –
28 | Cc1ccc(C[n+]2c(-c3ccc(C)cc3)cc(-c3ccc(C)cc3)cc2-c2ccc(C)cc2)cc1 | – | 18.4 µM (inactive)
29 | O=C(NNC(=O)c1cc(-c2ccncc2)nc2ccccc12)c1ccccc1O | > 119 µM (inactive) | –
30 | CCCC(=O)NC(c1ccc(C(C)C)cc1)c1ccc2cccnc2c1O (centres undefined) | > 119 µM (inactive) | –
31 | COc1ccc2[nH]c3c(c2c1)CCNC3c1ccc([N+](=O)[O-])o1 (centres undefined) | 116 µM (inactive) | –
32 | COc1ccccc1NC(=O)NNC(=O)c1cc2ccccc2cc1O | > 119 µM (inactive) | –
33 | N/C(=N/OC(=O)c1ccccc1Cl)c1ncc([N+](=O)[O-])s1 | 93.1 µM (inactive) | –
34 | COc1ccccc1/C=C1\SC(=S)N(CCC(=O)NNC(=O)c2ccccc2O)C1=O | > 119 µM (inactive) | –
35 | COc1cccc(/C=N/NC(=O)c2[nH]c(C)c(C(=O)N/N=C/c3cccc(OC)c3O)c2C)c1O | > 119 µM (inactive) | –
36 | CCN1/C(=C\c2ccc3ccccc3[n+]2CC)Sc2cc(C)ccc21 | 47.3 µM (inactive) | –
37 | Oc1ccc2ccccc2c1N=Nc1ccccn1 | > 118 µM (inactive) | –
38 | CC(Sc1ccsc1[N+](=O)[O-])C(=O)NCc1ccco1 (centres undefined) | > 119 µM (inactive) | –
39 | Cc1onc(-c2ccccc2)c1C(=O)O/N=C(\N)c1ccc([N+](=O)[O-])o1 | 78.4 µM (inactive) | –
40 | Cn1c(O)c(/C=N/NC(=O)c2cc3ccccc3cc2O)c2ccccc21 | > 119 µM (inactive) | –
41 | O=[N+]([O-])c1cc(O)c2ncccc2c1 | 46.5 µM (inactive) | –
42 | CCC(=O)NC(c1ccccc1OC)c1ccc2cccnc2c1O (centres undefined) | > 119 µM (inactive) | –
43 | O=C(CSc1nc2ccccc2s1)Nc1ccc(N2CCOCC2)c(Cl)c1 | > 119 µM (inactive) | –
44 | Cc1cccc(NC(=O)Cn2cc(C(=O)c3ccco3)c3ccccc32)c1 | > 119 µM (inactive) | –
45 | O=C(CN1C(=O)S/C(=C\c2ccccc2)C1=O)NNC(=O)c1ccccc1O | > 119 µM (inactive) | –
46 | O=C(Cc1ccc2c(c1)OCO2)NN=Cc1ccc([N+](=O)[O-])o1 | 10.6 µM (inactive) | –
47 | O=C(NC(NC(=S)Nc1ccc(Cl)cc1)C(Cl)(Cl)Cl)c1ccco1 (centres undefined) | > 119 µM (inactive) | –
48 | Cc1cc(NC(c2ccc(Cl)cc2)c2ccc3cccnc3c2O)no1 (centres undefined) | > 119 µM (inactive) | –
49 | O=C(Nc1cccc(NC(=O)c2ccccc2Cl)c1)c1ccc([N+](=O)[O-])o1 | 16.8 µM (inactive) | –
50 | CCOC(=O)C1=C(C)NC2=C(C(=O)c3ccccc32)C1c1ccc([N+](=O)[O-])o1 (centres undefined) | > 119 µM (inactive) | –

Row | SMILES | IC50 [1] | IC50
51 | N#Cc1ccc(NC(=O)Nc2ccc(Cl)cc2)cc1 | > 119 µM (inactive) | –
52 | CC(=O)Nc1ccc2nc(NC(=O)c3ccc([N+](=O)[O-])o3)sc2c1 | > 13.2 µM (inactive) | –
53 | Cc1ccc(C)c(S(=O)(=O)N2CCN(Cc3ccc(O)c4ncccc34)CC2)c1 | > 119 µM (inactive) | –
54 | CC(C)C(=O)NC(c1cccc([N+](=O)[O-])c1)c1ccc2cccnc2c1O (centres undefined) | > 119 µM (inactive) | –
55 | CCN1/C(=C/C=C/c2sc3ccccc3[n+]2CC)Sc2ccccc21 | 78.2 µM (inactive) | –
56 | O=C(Nc1ccc2[nH]c(=O)[nH]c2c1)c1ccc([N+](=O)[O-])o1 | 21.8 µM (inactive) | –
57 | O=C(c1ccc([N+](=O)[O-])o1)N1CCOCC1 | 15.3 µM (inactive) | –
58 | COc1ccc(-c2nnc(NC(=O)c3ccc(F)cc3)o2)cc1 | > 118 µM (inactive) | –
59 | CC(=O)NC1CCCN(O)C(=O)/C=C(\C)CCOC(=O)C(NC(C)=O)CCCN(O)C(=O)/C=C(\C)CCOC(=O)C(NC(C)=O)CCCN(O)C(=O)/C=C(\C)CCOC1=O (centres undefined) | > 119 µM (inactive) | –
60 | O=C(N/N=C/c1ccc(O)cc1O)c1ccc(CN2C(=O)c3cccc4cccc2c34)cc1 | > 119 µM (inactive) | –
61 | O=C(CNc1cccc2ccccc12)N/N=C/c1ccc([N+](=O)[O-])o1 | 70.5 µM (inactive) | –
62 | CCCNC(=O)c1ccc2c(=O)c(O)c(-c3ccc(C)cc3)[nH]c2c1 | > 119 µM (inactive) | –
63 | Cc1ccc(-c2nc3c(Cl)cc(Cl)cc3c(=O)n2O)cc1 | > 119 µM (inactive) | –
64 | CC1(C)OC(=O)C(=NNc2ccc(O)cc2)C(=O)O1 | > 119 µM (inactive) | –
65 | C=CCn1c(Sc2ncc([N+](=O)[O-])s2)n[nH]c1=O | 11.8 µM (inactive) | –
66 | Cc1onc(-c2c(Cl)cccc2Cl)c1C(=O)N/N=C(\N)COc1ccc(Cl)cc1 | > 119 µM (inactive) | –
67 | Nc1c(Cl)ncnc1N/N=C/c1ccc2ccccc2n1 | > 119 µM (inactive) | –
68 | O=C1CCC(=O)N(O)CCCCCNC(=O)CCC(=O)N(O)CCCCNC(=O)CCC(=O)N(O)CCCCCN1 | > 119 µM (inactive) | –
69 | CC(C)CC(=O)NC(c1cccs1)c1ccc2cccnc2c1O (centres undefined) | > 119 µM (inactive) | –
70 | Oc1ccccc1N=Nc1nc(-c2ccccc2)c(-c2ccccc2)[nH]1 | > 119 µM (inactive) | –
71 | O=C(N/N=C/c1ccc(O)cc1O)C(=O)N/N=C/c1ccc(O)cc1O | > 119 µM (inactive) | –
72 | CCOC(=O)c1cn(CC)c2cc(N3CCSCC3)c(F)cc2c1=O | 47.8 µM (inactive) | –
73 | Cc1cc([N+](=O)[O-])ccc1-c1ccc(C2Nc3ccccc3C(=O)N2O)o1 (centres undefined) | > 119 µM (inactive) | –
74 | O=C(Cn1cnc2ccccc21)Nc1ccc2c(c1)OCCCO2 | > 119 µM (inactive) | –
